The source of these data is patent publication US11479536B1 (King Abdulaziz University, priority 2022, dated 2022).

“And” between values parts separate entries of the source, which are not always exact repeats. Equal entries are not always repeated.

Data set [1] deals with T1, AMPK (A1/B1/G2) (Homo sapiens, UniProt Q13131+Q9UGJ0+Q9Y478).
T1 construct: This system includes a recombinant full-length human AMPK enzyme; purchased Promega
As to the kind of experiment: Cell-free AMPK inhibition assay, AMPK (A1/B1/G2) Kinase Enzyme system. The data set is classed as biochemical. The conditions noted are these: recombinant full-length human AMPK. As to the method: The inhibitory effect of serial concentrations of MAK compounds on AMPK Kinase activity was investigated using the highly sensitive AMPK (A1/B1/G2) Kinase Enzyme assay system (Promega, Madison Wis. USA). This system includes a recombinant full-length human AMPK enzyme and a substrate for the enzyme. The experiment was conducted according to the manufacturer's instructions in the provided protocol. Mean values of replicates were calculated in comparison to the control group.

Data set [2] concerns MCF7 spheroids. Nature of the data set: Cytotoxicity assay (MTT) in spheroid culture, MCF7. The data set is classed as cell-based, human. The protocol: (§1) 1×10^4 cells of each cell line (MCF7 and T47D) were seeded into ultra-low attachment 96 well plate at 37° C. and grown for 48 hours in DMEM media to result in the formation of spheroids. Then, the cells were subjected to the different treatment conditions before performing the assays.
(§2) The cytotoxic effects of MAK compounds were assessed against MCF7 and T47D cell lines using MTT cell viability assay. The cells were treated for 48 hours with different concentrations of each MAK compound and the control cells were subjected to the vehicle (0.1% DMSO). Then, 10% of 5 mg/mL MTT was added to each well containing treated or control cells, and mixture was incubated at 37° C. for 3 hours. After that, the MTT-containing media was replaced with 100 μL DMSO and incubated for 10 minutes at room temperature before measuring the absorbance for each well at 570 nm. According to the measured absorbance, the IC50 was calculated for each compound. All the experiments were performed in biological and experimental replicates.

Data set [3] has as its system T47D spheroids. Nature of the data set: Cytotoxicity assay (MTT) in spheroid culture, T47D. The data set is classed as cell-based, human. As to the method: as §1, §2
Data set [4] deals with MCF7 spheroids. As to the kind of experiment: Mitochondrial membrane potential assay (JC-1), MCF7 spheroids. Conditions: 48 h post treatment at IC50, control 18.01±0.58%. The data set is classed as cell-based, human. The protocol: (§3) The mitochondrial membrane potential was investigated in response to the treatment with MAK compounds. This assay depends on the measurement of the aggregate fluorescence for Tetraethylbenzimidazolylcarbocyanine iodide (JC-1). This cationic dye accumulates in the energized mitochondria, and the increase in aggregate fluorescence indicates mitochondrial […] while the reduction indicates the depolarization state.
(§4) After growing the cells and treating them with MAK compound for 48 hours, 2 μM of JC-1 final concentration was added and the mixture was incubated for 1 hour at 37° C. in presence of 5% CO2. Then, the samples were analyzed using flow cytometry. Mean values and standard deviation of replicates were calculated in comparison to the control group.

For data set [5], the system named is T47D spheroids. Nature of the data set: Mitochondrial membrane potential assay (JC-1), T47D spheroids. It is filed as cell-based, human. Conditions: 48 h post treatment at IC50, control 15.67±2.05%. As to the method:
as §3, §4

Data set [6] deals with MCF7 spheroids. As to the kind of experiment: Live and dead assay of tumor spheroids, MCF7. The data set is classed as cell-based, human. The conditions noted are these: 48 h post treatment, control 10.33±2.40%. As to the method: (§5) The Live/Dead assay contains a mixture of two staining fluorescent dyes that label live and dead cells to enable differentiation between them. The cell viability of the cells in response to the treatment with MAK compounds was examined. The cells were grown for 48 hours and treated with MAK compound for additional 48 hours, then Cytox RED solution reagent was added. After incubation at 37° C. under 5% CO2 for 1 hour, the samples were immediately analyzed by flow cytometry. Mean values and standard deviation of replicates were calculated in comparison to the control group.

For data set [7], the system named is T47D spheroids. As to the kind of experiment: Live and dead assay of tumor spheroids, T47D. The data set is classed as cell-based, human. Conditions: 48 h post treatment, control 2.60±0.31%. As to the method:
as §5

The subject of data set [8] is MCF7 spheroids. As to the kind of experiment: Reactive oxygen species (CellROX) assay, MCF7 spheroids. The conditions noted are these: 48 h treatment, CellROX Green. It is filed as cell-based, human. As to the method:
(§6) The CELLROX (Invitrogen) assay was used to measure the level of reactive oxygen species (ROS) in live cells. […] The technique was used to investigate the capability of tested compounds to induce intracellular ROS. After forming the spheroids for 48 hours and treating them for additional 48 hours with MAK compound, spheroids were incubated in culture medium with 500 nM CellROX for 60 minutes at 37° C. in presence of 5% CO2, and the samples were immediately analyzed on flow cytometry using 488-nm excitation for the CellROX® Green.

Data set [9] concerns T47D spheroids. Nature of the data set: Reactive oxygen species (CellROX) assay, T47D spheroids. It is filed as cell-based, human. The conditions noted are these: 48 h treatment, CellROX Green. The protocol: as §6
Data set [10] deals with MCF7 cell line. Nature of the data set: Cytotoxic assay (MTT) in monolayer model, MCF7. The data set is classed as cell-based. Conditions: Homo sapiens, 48 h, read-out: IC50 MCF-7 cell line inhibition, monolayer. As to the method:
(§7) 1×10^6 cells of the human breast cancer cell lines MCF7 and T47D were seeded and grown at 37° C. with 5% CO2, in a Dulbecco's Modified Eagle Medium (DMEM) with 10% fetal bovine serum (Sigma). The cells were maintained until they reached the confluence over 90%. Then, the cells were subjected to the different treatment conditions before performing the assays.
as §2

The test system of data set [11] is T47D cell line. Nature of the data set: Cytotoxic assay (MTT) in monolayer model, T47D. The conditions noted are these: Homo sapiens, 48 h, read-out: IC50 cytotoxic assay against T47D, monolayer. It is filed as cell-based. As to the method: as §7, §2
In data set [12] the test system is human skin fibroblasts (HSF). As to the kind of experiment: Cytotoxicity on human skin fibroblasts (SRB method). Conditions: HSF, SRB, 72 h. It is filed as cell-based. The protocol:
In addition to have a good physicochemical profile, it is important for a studied lead to differentiate between cancer cells and highly proliferating non-cancerous cells. Therefore, we assessed compounds MAK-1 and MAK-6 for both the in silico and in vitro physicochemical characteristics as well as for cytotoxic effect on human skin fibroblasts (SKF) cell lines. Cytotoxicity was determined using Sulforhodamine B (SRB) method. Exponentially growing human skin fibroblast cells (Nawah Scientific, Cairo, Egypt) were collected using 0.25% Trypsin-EDTA and were then seeded in 96-well plates at a density of 1000-2000 cells/well in 10% FBS and penicillin/streptomycin supplemented RPMI-1640 medium. After 24 h, cells were treated with different concentrations of test compounds and incubated for 72 h at 37° C. in a humidified atmosphere containing 5% CO2. Next, the cells were fixed by adding trichloroacetic acid (TCA, 10% final conc. in wells) directly to the wells and incubated for 1 h at 4° C., then cells were washed with distilled water 5 times to remove excess TCA, media, serum proteins, and metabolites, followed by air drying. After that, the fixed cells were stained with 0.4% SRB dissolved in 1% acetic acid for 10 min at room temperature, and excess stain was removed by quickly rinsing with 1% acetic acid. The residual acetic acid was removed completely by air drying the plates for 24 h, and the dye was solubilized with Tris buffer (pH=7.4, 10 mM) for 5 min on a shaker at 1600 rpm. The optical density (OD) of each well was measured spectrophotometrically at 564 nm with an ELISA microplate reader (ChroMate-4300, FL, USA). The IC50 values were calculated according to the equation for Boltzman sigmoidal concentration—response curve using the nonlinear regression fitting models (Graph Pad, Prism Version 5).

Data set [13] has as its system MCF7 cell lines. As to the kind of experiment: Cytotoxic assays of KAC-12 on breast cancer MCF7 cell lines. It is filed as cell-based, human.
Data set [14] has as its system AMPK (phospho-protein). The conditions noted are these: concentration not given; cited from earlier work.

T1 sequence (Q13131 whole entry): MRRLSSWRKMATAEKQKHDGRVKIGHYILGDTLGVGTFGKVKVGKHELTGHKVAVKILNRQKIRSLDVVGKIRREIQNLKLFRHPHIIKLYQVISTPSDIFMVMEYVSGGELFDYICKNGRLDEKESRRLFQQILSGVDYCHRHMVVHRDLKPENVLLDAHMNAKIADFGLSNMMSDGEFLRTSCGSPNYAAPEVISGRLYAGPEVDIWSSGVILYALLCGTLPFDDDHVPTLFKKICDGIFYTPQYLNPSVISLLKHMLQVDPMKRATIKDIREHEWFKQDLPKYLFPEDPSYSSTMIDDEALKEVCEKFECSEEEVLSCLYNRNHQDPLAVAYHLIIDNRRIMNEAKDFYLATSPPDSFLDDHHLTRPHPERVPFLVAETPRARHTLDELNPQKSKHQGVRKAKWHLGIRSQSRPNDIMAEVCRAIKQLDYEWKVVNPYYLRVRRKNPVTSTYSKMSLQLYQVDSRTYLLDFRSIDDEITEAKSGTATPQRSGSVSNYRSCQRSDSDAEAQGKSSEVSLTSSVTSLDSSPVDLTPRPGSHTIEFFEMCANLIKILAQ
T1 sequence (Q9Y478 whole entry partner): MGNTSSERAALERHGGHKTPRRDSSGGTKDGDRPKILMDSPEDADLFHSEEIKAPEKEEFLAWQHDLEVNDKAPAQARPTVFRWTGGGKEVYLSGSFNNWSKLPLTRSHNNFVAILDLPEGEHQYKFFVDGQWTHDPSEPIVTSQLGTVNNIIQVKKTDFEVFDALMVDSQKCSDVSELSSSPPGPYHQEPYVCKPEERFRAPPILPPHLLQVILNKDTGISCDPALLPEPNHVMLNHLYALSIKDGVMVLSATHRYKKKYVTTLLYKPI
T1 sequence (Q9UGJ0 whole entry partner): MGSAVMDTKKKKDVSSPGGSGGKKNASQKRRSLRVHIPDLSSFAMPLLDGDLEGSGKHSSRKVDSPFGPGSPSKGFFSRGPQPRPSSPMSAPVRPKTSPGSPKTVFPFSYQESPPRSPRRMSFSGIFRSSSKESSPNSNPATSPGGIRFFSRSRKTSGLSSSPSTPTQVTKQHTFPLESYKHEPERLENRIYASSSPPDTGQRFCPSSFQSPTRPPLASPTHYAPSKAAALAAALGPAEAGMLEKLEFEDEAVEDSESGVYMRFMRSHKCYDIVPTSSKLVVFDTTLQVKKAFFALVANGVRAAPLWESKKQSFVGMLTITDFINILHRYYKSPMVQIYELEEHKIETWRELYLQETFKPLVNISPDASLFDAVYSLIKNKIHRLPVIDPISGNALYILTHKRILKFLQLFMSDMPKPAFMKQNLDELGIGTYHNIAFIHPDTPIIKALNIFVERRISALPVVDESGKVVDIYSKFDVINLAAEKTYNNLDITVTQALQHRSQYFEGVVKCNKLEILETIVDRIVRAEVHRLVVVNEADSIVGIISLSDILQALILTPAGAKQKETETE

The compound `O=C(Cc1ccc(NC(=O)c2cncc(Cl)c2)cc1)NCc1ccccc1` [MAK-9, N-(4-(2-(benzylamino)-2-oxoethyl)phenyl)-5-chloronicotinamide] showed a melting point of 231 °C.
For the compound `COc1cccc(C(=O)Nc2cccnc2CC(=O)NCc2ccccc2)c1`, the IC50 was determined as 0.0058 µM in [1]; 19.6 ± 0.525 µM in [2] (Homo sapiens, MCF7, 3D spheroid model, 48 h, MTT); 3.72 ± 0.03 µM in data set [3] (Homo sapiens, T47D, 3D spheroid model, 48 h, MTT); 0.148 µM in data set [10]; 0.097 µM in data set [11]. For the same compound, the “reduction of spheroid size” value in [2] (MCF7 spheroids treated at IC50 for 48 h, vs control) is recorded as “noticeable reduction”; in data set [3] (T47D spheroids treated at IC50 for 48 h, vs control), “noticeable reduction”. Also, the entries for the “depolarized cells (mitochondrial membrane), mean±SEM” value in data set [4] and in [5] were 34.00±0.87% and 36.77±0.65%, respectively. Besides, the “dead rate (dead cells), mean±SEM” value is given as 36.48±0.39% in [6] and 32.10±0.56% in [7]. In addition, the “ROS level, treatment vs control” value in data set [8] turned out to be 25%; in data set [9], 30%. Also, in [12], the “safety to normal cells (human skin fibroblasts)” value is recorded as “highly safe”.
On to `O=C(Cc1ccc(NC(=O)c2ccc(OCCN3CCOCC3)c(Cl)c2)cc1)NCc1ccccc1` [MAK-5, N-(4-(2-(benzylamino)-2-oxoethyl)phenyl)-3-chloro-4-(2-morpholinoethoxy)benzamide], for which the melting point was determined as 147 °C.
`O=C(Cc1ccc(NC(=O)c2ccc(Cl)o2)cc1)NCc1ccccc1` [MAK-10, N-(4-(2-(benzylamino)-2-oxoethyl)phenyl)-5-chlorofuran-2-carboxamide]: the melting point worked out at 217 °C. In addition, the IC50 in data set [10] was 0.225 µM.
With `O=C(Cc1ccc(NC(=O)c2cccc(OCCN3CCOCC3)c2)cc1)NCc1ccccc1` [MAK-3, N-(4-(2-(benzylamino)-2-oxoethyl)phenyl)-3-(2-morpholinoethoxy)benzamide], in data set [11], the IC50 is 0.001 µM.
The compound `COc1ccc(C(=O)Nc2ccc(CC(=O)NCc3ccccc3)cc2)cc1OC` [MAK-2, N-(4-(2-(benzylamino)-2-oxoethyl)phenyl)-3,4-dimethoxybenzamide] returned a melting point of 215 °C. Also, the IC50 in [10] is 0.006 µM.
On the same counts, the results for `COc1ccc(C(=O)Nc2ccc(CC(=O)NCc3ccccc3)cc2)cc1Cl` [MAK-4, N-(4-(2-(benzylamino)-2-oxoethyl)phenyl)-3-chloro-4-methoxybenzamide] are 186 °C and 0.225 µM.
In data set [13], `O=C(Cc1ccc(NC(=O)c2cccc(Cl)c2)cc1)NCc1ccccc1` [KAC-12] registered an IC50 of 47.7 µM. Besides, the “downregulation of the activated AMPK signal (phosphoprotein)” value in data set [14] was 15% and 13%.
